Patent US5508450A, “Benzopyran derivatives” (Ono Pharmaceutical Co., Ltd., priority 1989, dated 1996)
Counter-ions that a name gives are not always drawn.

Key:
[1] = system: Lysozyme (dimer formation with fructose); test: Inhibitory activity on Maillard reaction: formation of lysozyme dimer (lysozyme + fructose, SDS-PAGE, densitometer); format: biochemical; conditions: lysozyme 10 mg/ml, fructose 100 mM, 0.2M sodium phosphate buffer pH 7.4, 37° C., 3 days
Procedure: The inhibitory activity on Maillard reaction of the compounds of the present invention has confirmed by the screening system mentioned below. Lysozyme (10 mg/ml) and fructose (100 mM) were dissolved in 0.2M sodium phosphatic buffer solution (PH 7.4). The solution was incubated at a temperature of 37° C. for 3 days. A given volume of the reaction solution was separated using SDS-PAGE by the electrophoresis. After the electrophoresis, the SDS-PAGE was dyed by 0.2% Coomassie Brilliant Blue R-250 and then the dimer was determined by densitometer. The compounds of the present invention were added before incubation and the inhibitory activity of them against the formation of the dimer was examined in various concentrations and IC50 values were calculated.

[2] = system: lipid peroxide formation in rat liver homogenate; test: Antioxiding effect: inhibitory activity against formation of peroxidized fat (lipid peroxide by TBA method); format: biochemical, Male Sprague Dawley rat; conditions: 200 μM FeCl2, 10% rat liver homogenate, 37° C., 1 hr
Procedure: The antioxiding effect of the compounds of the present invention has confirmed by the screening system which examines inhibitory activity against formation of peroxidized fat mentioned below. Male Sprague Dawley rat was fasted for 12 hrs (overnight) before experiments, and was anesthetized with ether. Rat liver was perfused with ice-cold 0.9% NaCl via the portal vein, and promptly excised. 10% Liver homogenates were prepared in ice-cold 1.15% KCl. The reaction was started by adding 200 μM FeCl2 to the liver homogenate ([…]), and incubated at 37° C. for 1 hr. Lipid peroxide was measured by the TBA method according to the method of Ohkawa (See Analytical Biochemistry,95, 351 (1979)). The compounds of the present invention were added before incubation. And the efficacy thereof was examined and calculated IC50 values thereof.

Maillard reaction = conditions: Brownlee et al., Science 232, 1629 (1986); cited from earlier work
[3] = system: advanced glycosylation end products in arterial wall connective tissue protein; conditions: administered to diabetic rats; Brownlee et al., Science 232, 1629 (1986); cited from earlier work

| Compound | IC50 [1] [µM] | IC50 [2] [µM] | inhibition of Maillard reaction in vitro (Maillard reaction) | inhibition of diabetes-induced accumulation of advanced glycosylation end products in arterial wall connective tissue protein [3] |
| --- | --- | --- | --- | --- |
| Cc1c2c(c3ccccc3c1O)OC(C)(CCOC(=O)c1ccc(NC(=N)N)cc1)CC2 (stereo not drawn) [1 (e), 2-(2,5-dimethyl-6-hydroxy-3,4-dihydro-2H-naphtho[1,2-b]pyran-2-yl)ethyl 4-quanidinobenzoatehydrochloride] | 50 | 0.16 |  |  |
| Cc1c2c(c3ccccc3c1O)OC(C)(CCOC(=O)c1ccc(CNC(=N)N)cc1)CC2 (stereo not drawn) [1 (j), 2-(2,5-dimethyl-6-hydroxy-3,4-dihydro-2H-naphtho[1,2-b]pyran-2-yl)ethyl 4-quanidinomethylbenzoatehydrochloride] | 60 | 0.46 |  |  |
| Cc1c2c(c3ccccc3c1O)OC(C)(CCOC(=O)c1cccc(NC(=N)N)c1)CC2 (stereo not drawn) [1 (k), 2-(2,5-dimethyl-6-hydroxy-3,4-dihydro-2H-naphtho[1,2-b]pyran-2-yl)ethyl 3-quanidinobenzoatehydrochloride] |  | 0.44 |  |  |
| Cc1c2c(c3ccccc3c1O)OC(C)(CCOC(=O)/C=C/c1ccc(NC(=N)N)cc1)CC2 (stereo not drawn) [1 (l), 2-(2,5-dimethyl-6-hydroxy-3,4-dihydro-2H-naphtho[1,2-b]pyran-2-yl)ethyl 4-quanidinocinnamatehydrochloride] |  | 0.38 |  |  |
| Cc1c(C)c2c(c(C)c1O)CCC(C)(CCNC(=O)C1CCC(CNC(=N)N)CC1)O2 (stereo not drawn) [2 (a), N-[2-(6-hydroxy-2,4,7,8-tetramethyl-3,4-dihydro-2H-benzo[1,2-b]pyran-2-yl)-ethyl]-4-quanidinomethyl-cyclohexanecarboxamide hydrochloride] |  | 0.78 |  |  |
| Cc1c(C)c2c(c(C)c1O)CCC(C)(CCNC(=N)NN)O2 (stereo not drawn) [Example 3, 1-amino-3-[2-(6-hydroxy-2,5,7,8-tetramethyl-3,4-dihydro-2H-benzo[1,2-b]pyran-2-yl)ethyl]guanidine hydroiodide] | 360 | 0.54 |  |  |
| N=C(N)NN [aminoguanidine] |  |  | inhibits Maillard reaction in vitro | inhibits diabetes-induced accumulation of advanced glycosylation end products in arterial wall connective tissue protein |

Further lines, with some results ahead:

| IC50 [1] [µM] | IC50 [2] [µM] | Compound | inhibition of Maillard reaction in vitro (Maillard reaction) | inhibition of diabetes-induced accumulation of advanced glycosylation end products in arterial wall connective tissue protein [3] |
| --- | --- | --- | --- | --- |
| 200 | 0.54 | Cc1c(C)c2c(c(C)c1O)CCC(C)(CCOC(=O)c1ccc(NC(=N)N)cc1)O2 (stereo not drawn) [1 (a), 2-(6-hydroxy-2,5,7,8-tetramethyl-3,4-dihydro-2H-benzo[1,2-b]pyran-2-yl)ethyl4-quanidinobenzoate hydrochloride] |  |  |
| 53 | 0.9 | Cc1c(C)c2c(c(C)c1O)CCC(C)(CCOC(=O)/C=C/c1ccc(NC(=N)N)cc1)O2 (stereo not drawn) [1 (h), 2-(6-hydroxy-2,5,7,8-tetramethyl-3,4-dihydro-2H-benzo[1,2-b]pyran-2-yl)ethyl4-quanidinocinnamate hydrochloride] |  |  |
| 440 | 0.6 | Cc1c(C)c2c(c(C)c1O)CCC(C)(CCOC(=O)c1ccc(N(C)C(=N)N)cc1)O2 (stereo not drawn) [1 (m), 2-(6-hydroxy-2,5,7,8-tetramethyl-3,4-dihydro-2H-benzo[1,2-b]pyran--2-yl)ethyl 4-(1-methylquanidino)-benzoate hydrochloride] |  |  |
|  | 0.47 | Cc1c(C)c2c(c(C)c1O)CCC(C)(CCNC(=O)c1ccc(CNC(=N)N)cc1)O2 (stereo not drawn) [2 (b), N-[2-(6-hydroxy-2,4,7,8-tetramethyl-3,4-dihydro-2H-benzo[1,2-b]pyran-2-yl)-ethyl]-4-quanidinomethyl-benzamide hydrochloride] |  |  |
|  | 0.6 | Cc1c(C)c2c(c(C)c1O)CCC(C)(CCOC(=O)c1ccc(CNC(=N)N)cc1)O2 (stereo not drawn) [Example 1, 2-(6-hydroxy-2,5,7,8-tetramethyl-3,4-dihydro-2H-benzo[1,2-b]pyran-2-yl)ethyl 4-guanidinomethylbenzoate hydrochloride] |  |  |
| 450 | 0.66 | Cc1c(C)c2c(c(C)c1O)CCC(C)(CCNC(=O)c1ccc(NC(=N)N)cc1)O2 (stereo not drawn) [Example 2, N-[2-(6-hydroxy-2,5,7,8-tetramethyl-3,4-dihydro-2H-benzo[1,2-b]pyran-2-yl)ethyl]-4-guanidinobenzamide hydrochloride] |  |  |
